Molecules are shown by their SMILES. pEC50: −log10 of the molar value.

The test system of test [1] is Human RSV-A (“Long” strain). Nature of the test: RSV-A assay (CPE, ATPlite) in Hep-2 cells. The test is classed as cell-based. The settings on record: human respiratory syncytial virus, 120 h, MOI 0.1, 5-day incubation, ATPlite readout. An excerpt: Hep-2 cells, (originally derived from tumors grown in irradiated-cortisonised weanling rats that had been injected with epidermoid carcinoma tissue from a person's larynx, but later found to be indistinguishable from HeLa cells by PCR DNA analysis), were used for the culturing of genotype A, “Long” strain RSV. Flasks were inoculated with RSV and viral stocks were collected once cytopathic effect (CPE) was greater than 90%. Viral stocks in 25% sucrose media were snap frozen using liquid nitrogen to increase viral stability. Viral stock titers were quantified by tissue culture infectious dose 50% (TCID50) using 8,000 cells per well and 3-fold viral dilutions across a 96-well plate, cultured for 4 days. Viral stock titers were also quantified by a plaque forming unit assay, as described elsewhere.
Following extensive parameter testing, the final assay is run as follows: Hep-2 cells are seeded into the inner 60 wells of a 96-well plate at 8,000 cells per well in a volume of 50 μL using Growth Media (DMEM without phenol red, 1% L-Glut, 1% Penn/Strep, 1% nonessential amino acids, 10% heat-inactivated FBS). 2-fold serial dilutions of control and test compounds are added to the wells in duplicate in a total volume of 25 μL. Viral stock is then added to the wells at a multiplicity of infection (MOI) of 0.1 in a volume of 25 μL, bringing the total volume of each well to 100 μL. The MOI is calculated using the PFU/mL, or TCID50 if unavailable. Each 96-well plate has a control column of 6 wells with cells and virus but no compound (negative control, max CPE), a column with cells but no compound or virus (positive control, minimum CPE), and a column with no cells or virus or compound (background plate/reagent control). The control wells with cells but no virus are given an additional 25 μL of growth media containing an equal quantity of sucrose as those wells receiving the viral stock in order to keep consistent in media and volume conditions. The outer wells of the plate are filled with 125 μL of moat media (DMEM, 1% Penn/Strep) to act as a thermal and evaporative moat around the test wells. Following a 5-day incubation period, the plates are read using ATPlite (50 μL added per well), which quantifies the amount of ATP (a measure of cell health) present in each well. Assay plates are read using the Envision luminometer. In parallel, cytotoxicity is examined on an additional 96-well plate treated in an identical manner, but substituting the 25 μL of viral stock for 25 μL of growth media. […] EC50 ranges are as follows: A<0.4 μM; B 0.4-0.8 μM; C>0.8 μM.

The subject of test [2] is Human RSV-B (genotype B, strain 9320). Nature of the test: RSV-B assay (qPCR or ATPlite) in A549 cells. The test is classed as cell-based. Particulars: human respiratory syncytial virus, 144 h, strain 9320, MOI 0.5, 6 days post infection, qPCR or ATPlite readout. An excerpt:
Hep-2 cells, (originally derived from tumors grown in irradiated-cortisonised weanling rats that had been injected with epidermoid carcinoma tissue from a person's larynx, but later found to be indistinguishable from HeLa cells by PCR DNA analysis), were used for the culturing of genotype B, strain 9320. Flasks were inoculated with RSV-B and viral stocks were collected once cytopathic effect (CPE) was greater than 90%. Viral stocks in 25% sucrose media were snap frozen using liquid nitrogen to increase viral stability. Viral stock titers were quantified by tissue culture infectious dose 50% (TCID50) using 8,000 cells per well and 5-fold viral dilutions across a 96-well plate, cultured for 4 days. Viral stock titers were also quantified by a plaque forming unit assay, as described elsewhere.
The assay is run as follows: A549 cells (originally derived through explant culture from a person's carcinomatous lung tissue) are seeded into the inner 60 wells of a 96-well plate at 3,000 cells per well in a volume of 50 μL using A549 growth media (F-12K Media, 1% Penn/Strep, 1% nonessential amino acids, 10% heat-inactivated FBS). 2-fold serial dilutions of control and test compounds are added to the wells in duplicate in a total volume of 25 μL. Viral stock is then added to the wells at a multiplicity of infection (MOI) of 0.5 in a volume of 25 μL, bringing the total volume of each well to 100 μL. The MOI is calculated using the PFU/mL, or TCID50 if unavailable. Each 96-well plate has a control column of 6 wells with cells and virus but no compound (negative control, max CPE), a column with cells but no compound or virus (positive control, minimum CPE), and a column with no cells or virus or compound (background plate/reagent control). The control wells with cells but no virus are given an additional 25 μL of growth media containing an equal quantity of sucrose as those wells receiving the viral stock in order to keep consistent in media and volume conditions. The outer wells of the plate are filled with 125 μL of moat media (DMEM, 1% Penn/Strep) to act as a thermal and evaporative moat around the test wells. 6 days post infection, the plates are read using qPCR or ATP lite (50 μL added per well), which quantifies the amount of ATP (a measure of cell health) present in each well. Assay plates treated with APTlite are read using the Envision luminometer. […] EC50 ranges are as follows: A<0.4 μM; B 0.4-0.8 μM; C>0.8 μM.

On to `Cc1ncc(-c2sc(C3(C(F)(F)F)CC3)nc2-c2nnc(N[C@H]3N=C(c4ccccc4)c4cccc(F)c4NC3=O)o2)cn1` [Example 73], for which the pEC50 in test [1] and in test [2] was more than 6.40 in each case. Regarding `CCc1nc(-c2nnc(N[C@@H]3N=C(c4ccccc4)c4cccc(F)c4NC3=O)o2)c(-c2cnc(C)nc2)s1` [Example 51], the figures for the negative logarithm of the EC50 (pEC50) in test [1] and in test [2] were 6.10 to 6.40 and more than 6.40, respectively. The corresponding values for `O=C1Nc2c(F)cccc2C(c2ccccc2)=N[C@@H]1Nc1nnc(-c2nc(C3CCC3)sc2-c2cnc(C3CC3)nc2)o1` [Example 65] are more than 6.40 and more than 6.40.

Consider `Cc1ncc(-c2sc(C(F)(F)F)nc2-c2nnc(NC3N=C(c4ccccc4)c4ccccc4NC3=O)o2)cn1` (centres unmarked) [Example 33], for which the pEC50 in test [1] and in test [2] was more than 6.40 in each case. For `Cc1ncc(-c2cc(C(F)(F)F)cnc2-c2nnc(N[C@H]3N=C(c4ccccc4)c4cccc(F)c4NC3=O)o2)cn1` [Example 27], the pEC50 in test [1] and in test [2] was more than 6.40 each time.

For `CCc1ncc(-c2cc(C(F)(F)F)cnc2-c2nnc(N[C@H]3N=C(c4ccccc4)c4ccccc4NC3=O)o2)cn1` [Example 29], the pEC50 in test [1] and in test [2] was more than 6.40 throughout. As for `CCc1ncc(-c2sc(C3CC3)nc2-c2nnc(N[C@H]3N=C(c4ccccc4)c4cccc(F)c4NC3=O)o2)cn1` [Example 43], the pEC50 in test [1] and in test [2] was more than 6.40 in each case.

As for `CCc1ncc(-c2sc(C3CC3)nc2-c2nnc(N[C@H]3N=C(c4ccccc4)c4ccccc4NC3=O)o2)cn1` [Example 50], the pEC50 in test [1] and in test [2] was more than 6.40 throughout.

For the molecule `Cc1ncc(-c2sc(C)nc2-c2nnc(N[C@H]3N=C(c4ccccc4)c4cccc(F)c4NC3=O)o2)cn1` [Example 39], the pEC50 in test [1] and in test [2] was more than 6.40 throughout. With `O=C1Nc2ccccc2C(c2ccccc2)=NC1Nc1nnc(-c2ncc(C(F)(F)F)cc2-c2cnc(C3CC3)nc2)o1` (centres unmarked) [Example 7], the negative logarithm of the EC50 (pEC50) in test [1] and in test [2] was more than 6.40 each time. With `CCc1ncc(-c2sc(C(F)(F)F)nc2-c2nnc(NC3N=C(c4ccccc4)c4ccccc4NC3=O)o2)cn1` (centres unmarked) [Example 35], the negative-log EC50 (pEC50) in test [1] and in test [2] was more than 6.40 in each case. For `O=C1Nc2ccccc2C(c2ccccc2)=N[C@@H]1Nc1nnc(-c2ncc(C(F)(F)F)cc2-c2cnc(C3CC3)nc2)o1` [Example 25], the negative-log EC50 (pEC50) in test [1] and in test [2] was more than 6.40 in each case. As to `CCc1ncc(-c2sc(C3(C(F)(F)F)CC3)nc2-c2nnc(N[C@H]3N=C(c4ccccc4)c4cccc(F)c4NC3=O)o2)cn1` [Example 63], the pEC50 in test [1] and in test [2] was more than 6.40 throughout.

In the case of `CCc1ncc(-c2sc(C3CC3)nc2-c2nnc(N[C@@H]3N=C(c4ccccc4)c4ccccc4NC3=O)o2)cn1` [Example 49], the figures for the pEC50 in test [1] and in test [2] were 6.10 to 6.40 and more than 6.40, respectively.

`CCc1ncc(-c2sc(C3CC3)nc2-c2nnc(N[C@@H]3N=C(c4ccccc4)c4cccc(F)c4NC3=O)o2)cn1` [Example 44]: the negative-log EC50 (pEC50) in test [1] and in test [2] was more than 6.40 throughout. `O=C1Nc2ccccc2C(c2ccccc2)=NC1Nc1nnc(-c2ncc(C(F)(F)F)cc2-c2cnc(CO)nc2)o1` (centres unmarked) [Example 9]: the pEC50 in test [1] and in test [2] was less than 6.10 throughout. With `Cc1ncc(-c2sc(C3CC3)nc2-c2nnc(N[C@H]3N=C(c4ccccc4)c4cccc(F)c4NC3=O)o2)cn1` [Example 56], the pEC50 in test [1] and in test [2] was more than 6.40 throughout.

With `Cc1cnc(-c2nnc(N[C@H]3N=C(c4ccccc4)c4ccccc4NC3=O)o2)c(-c2cnc(C3CC3)nc2)c1` [Example 99], the pEC50 in test [1] and in test [2] was more than 6.40 each time. For the molecule `O=C1Nc2ccccc2C(c2ccccc2)=NC1Nc1nnc(-c2ncc(C(F)(F)F)cc2-c2cnc(CF)nc2)o1` (centres unmarked) [Example 6], the pEC50 in test [1] was more than 6.40. Same read-out and setting: with `N#Cc1ncc(-c2cc(C(F)(F)F)cnc2-c2nnc(NC3N=C(c4ccccc4)c4ccccc4NC3=O)o2)cn1` (centres unmarked) [Example 5] the figure was less than 6.10.

The values are drawn from patent US11912695B2, “Benzodiazepine derivatives as RSV inhibitors” (ENANTA PHARMACEUTICALS, INC., priority 2019, dated 2024).
